This is an account of results in PubChem BioAssay (NCI).

What all share (experiment): growth of human tumour cells (NCI), 48 h
For assay [1], the system named is HCT-15 colon.
In assay [2] the test system is HS 578T breast.
Assay [3] relates to LOX IMVI melanoma.
The subject of assay [4] is MCF7 breast.
Assay [5] has as its system MDA-MB-435.
For assay [6], the system named is NCI-H460 lung.
For assay [7], the system named is OVCAR-8 ovarian.
Assay [8] concerns SK-MEL-5 melanoma.
In assay [9] the test system is SNB-75 CNS.
In assay [10] the test system is UACC-62 melanoma.

Structures are written as SMILES.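 Each compound was tested at five concentrations against cells in 96-well plates for 48 hours. The concentration for full growth arrest is given as TGI.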 Where only a bound is given, the exact number is not on record here.

Take `Cc1cc(S(=O)(=O)Nc2nc(N)n(-c3ccccc3)n2)c(S)cc1Cl`: the TGI in assay [1], in assay [2], in assay [3], in [4], in [5] and in [6] was greater than 100 µM in each case. Besides, the TGI in [7], in assay [8], in assay [9] and in assay [10] was greater than 100 µM each time.

For `O=C(/C=C/c1ccccc1O)CC(=O)/C=C/c1ccccc1O`, the TGI in [1] was 19.9 µM; in assay [2], greater than 31.6 µM; in assay [3], 6.45 µM; in [4], 7.61 µM; in assay [5], greater than 31.6 µM; in assay [6], 30.7 µM. In addition, the TGI in assay [7] is 23.3 µM; in [8], 14.6 µM; in assay [9], greater than 78.7 µM; in assay [10], 7.58 µM.

On to `c1ccc2c(c1)N=c1ccccc1=P21c2ccccc2Nc2ccccc21`, for which the TGI in assay [1] is greater than 71.4 µM; in assay [2] it was 3.89 µM; in assay [3] it was 4.96 µM; in [4] it was 5.74 µM; in [5], 2.35 µM; in assay [6], 10.7 µM. Besides, the TGI in [7] was 5.62 µM; in [8] it was 0.42 µM; in [9], 4.67 µM; in assay [10], greater than 100 µM.
